Test results from publication PMC4503722, “Novel Phenotypic Outcomes Identified for a Public Collection of Approved Drugs from a Publicly Accessible Panel of Assays” (PLoS ONE, 2015).
Counter-ions that a name gives are not always drawn. Like-named read-outs stand apart in the source and are kept apart here. Where a SMILES comes first, the peptide text is derived from it. [ ]: non-standard residue; d: D form. The star is where a group is joined. Sta = CC(C)C[C@H](N)[C@@H](O)CC(=O)O; Isovaleryl = CC(C)CC(=O)*

How the values were obtained:
Test in all cases: cells
[1] = tested on: endothelial tube formation in co-cultures of ECFCs and ADSCs treated with VEGF; assay type: cell-based, human
[2] = tested on: nuclear β-catenin in C2C12 cells; assay type: cell-based
INS-1E cells = assay type: cell-based, rat
NCI-H716 cells = assay type: cell-based, Human
HeLa cells = assay type: cell-based; conditions: for EC50: Homo sapiens, HeLa, read-out: CellCycle G2/M
DLD-1 = assay type: cell-based; conditions: Homo sapiens
SW480 = assay type: cell-based; conditions: Homo sapiens
HCT116 = assay type: cell-based; conditions: Homo sapiens
[3] = tested on: HCT116 cells treated with a GSK3β inhibitor; assay type: cell-based; conditions: Homo sapiens
[4] = Homo sapiens, IC50 / EC50; endothelial tube area, ADSC/ECFC co-culture; read-out: Anti-Angiogenesis
[5] = Mus musculus, C2C12, IC50 / EC50; C2C12 beta-catenin translocation; read-out: Wnt Pathway
[6] = Rattus norvegicus; IC50 / EC50; INS-1E; read-out: Insulin Secretion
[7] = Homo sapiens; IC50 / EC50; NCI-H716; read-out: GLP 1 Secretion
[8] = DLD-1, basal, read-out: Basal_Viability ATP DLD-1
[9] = SW480, basal, read-out: Basal_Viability ATP SW480
[10] = HCT-116, basal, read-out: Basal_Viability ATP HCT116
[11] = HCT-116, GSK3b inhibitor pretreated, read-out: GSK3b inh pretreated_Viability ATP HCT116
[12] = Homo sapiens; read-out: Anti-Angiogenesis
[13] = Mus musculus, C2C12, S2 Table; module primary assay; 20 / 20.1 codes per legend; read-out: Wnt Pathway
[14] = Rattus norvegicus, INS-1E; read-out: Insulin Secretion
[15] = Homo sapiens, NCI-H716; read-out: GLP 1 Secretion
[16] = S2 Table, 20 = no response at highest concentration
[17] = DLD-1, basal, DLD-1, read-out: Basal_Viability ATP DLD-1
[18] = SW480, basal, SW480, read-out: Basal_Viability ATP SW480
[19] = HCT-116, basal, HCT116, read-out: Basal_Viability ATP HCT116
[20] = HCT-116, HCT116 pretreated with GSK3b inhibitor, read-out: GSK3b inh pretreated_Viability ATP HCT116
[21] = HCT-116, read-out: GSK3b inh pretreated_Viability ATP HCT116
[22] = Homo sapiens; read-out: Anti-Angio IC50
[23] = Mus musculus, C2C12; read-out: Wnt Pathway
[24] = Rattus norvegicus, INS-1E; read-out: Ins. sec. EC50
[25] = Homo sapiens, NCI-H716; read-out: GLP1 sec. EC50
[26] = DLD-1, 72 h, Table 2, 72 h, Cell TiterGlo, non-adherent, 20 coded, read-out: DLD-1 viab. IC50
[27] = SW480, 72 h, Table 2, 72 h, Cell TiterGlo, non-adherent, 20 coded, read-out: SW480 viab. IC50
[28] = HCT-116, 72 h, read-out: HCT-116 viab. IC50, Table 2, basal, 72 h, Cell TiterGlo, non-adherent, 20 coded
[29] = HCT-116, read-out: HCT-116 (GSK3β) viab. IC50, Table 2, GSK3β inhibitor LY2090314 20 nM, 72 h, Cell TiterGlo, 20 coded
[30] = Mus musculus, C2C12, Table 2; C2C12; […]; 20 / 20.1 coded; read-out: Wnt pot. EC50

| SMILES | IC50 [1, 4] [µM] | EC50 [2, 5] [µM] | EC50 (INS-1E cells; [6]) [µM] | EC50 (NCI-H716 cells; [7]) [µM] | EC50 (HeLa cells; IC50 / EC50) [µM] | IC50 (DLD-1; [8]) [µM] | IC50 (SW480; [9]) [µM] | IC50 (HCT116; [10]) [µM] | IC50 [1, 12] [µM] | EC50 [2, 13] [µM] | EC50 (INS-1E cells; [14]) [µM] | EC50 (NCI-H716 cells; [15]) [µM] | EC50 (HeLa cells; [16]) [µM] | IC50 (DLD-1; [17]) [µM] | IC50 (SW480; [18]) [µM] | IC50 (HCT116; [19]) [µM] | IC50 [3, 20] [µM] | other results |
| --- | --- | --- | --- | --- | --- | --- | --- | --- | --- | --- | --- | --- | --- | --- | --- | --- | --- | --- |
| CCCCCCCCCCCCCCCC[N+](C)(C)Cc1ccccc1 [Cetalkonium chloride] | 2.53 | > 10 | > 10 | > 10 | > 10 | 3.92 | 5.17 | 3.47 | – | – | – | – | – | – | – | – | – | IC50 [3, 11]: 6.25 µM |
| CC(=O)N(O)CCCCCNC(=O)CCC(=O)N(O)CCCCCNC(=O)CCC(=O)N(O)CCCCCN [Deferoxamine] | – | – | – | – | – | – | – | – | 4.53 | > 10 | > 10 | > 10 | > 10 | > 20 | > 20 | 8.55 | > 20 | – |
| Nc1nc(=O)n([C@@H]2O[C@H](CO)[C@@H](O)[C@@H]2F)cc1I [Fiacitabine] | 3.47 | > 10 | > 10 | > 10 | > 10 | > 20 | > 20 | > 20 | – | – | – | – | – | – | – | – | – | IC50 [3, 11]: > 20 µM |
| CN1CC[C@H](c2c(O)cc(O)c3c(=O)cc(-c4ccccc4Cl)oc23)[C@H](O)C1 [Flavopiridol] | 0.114 | 0.191 | > 10 | > 10 | > 10 | 0.0684 | 2.11 | 16.7 | – | – | – | – | – | – | – | – | – | IC50 [3, 21]: 0.297 µM |
| CO[C@@H]1[C@@H](OC)[C@H](C)[C@@](O)(CC(=O)O)O[C@H]1[C@H](C)[C@H]1O[C@@]2(CC[C@@](C)([C@H]3CC[C@@](C)([C@@H]4O[C@@H]([C@H]5O[C@](C)(O)[C@H](C)C[C@@H]5C)C[C@@H]4O[C@@H]4C[C@H](OC)[C@@H](OC)[C@H](C)O4)O3)O2)C[C@H](O)[C@H]1C [Maduramicin ammonium] | 0.252 | > 10 | > 10 | > 10 | > 10 | 1.08 | 1.45 | 8.6 | – | – | – | – | – | – | – | – | – | IC50 [3, 11]: 1.16 µM |
| C[C@@H]1C[C@H]2[C@@H]3CCC4=CC(=O)C=C[C@]4(C)[C@@]3(Cl)[C@@H](O)C[C@]2(C)[C@@]1(OC(=O)c1ccco1)C(=O)CCl [Mometasone furoate] | – | – | – | – | – | – | – | – | 4.99 | > 10 | > 10 | > 10 | > 10 | 8.42 | 4.89 | 14.5 | > 20 | – |
| CC(C)CC(=O)N[C@H](C(=O)N[C@H](C(=O)N[C@@H](CC(C)C)[C@@H](O)CC(=O)N[C@@H](C)C(=O)N[C@@H](CC(C)C)[C@@H](O)CC(=O)O)C(C)C)C(C)C [Pepstatin] (Isovaleryl-VV[Sta]A[Sta]-OH) | – | – | – | – | – | – | – | – | 1.24 | > 10 | > 10 | > 10 | > 10 | > 20 | > 20 | > 20 | 17.7 | – |
| CC(C)OC(=O)OCOP(=O)(CO[C@H](C)Cn1cnc2c(N)ncnc21)OCOC(=O)OC(C)C [Tenofovir disoproxil fumarate] | 3.84 | > 10 | > 10 | > 10 | > 10 | 19.6 | > 20 | > 20 | – | – | – | – | – | – | – | – | – | IC50 [3, 11]: > 20 µM |
| CCCCCCCCCCCCCCCC[N+](C)(C)CCN(Cc1ccc(OC)cc1)c1ncccn1 [Tonzonium bromide] | – | – | – | – | – | – | – | – | 3.07 | > 10 | > 10 | 17.8 | > 10 | 4.05 | 5.08 | 3.41 | 5.31 | – |
| CN(C)/N=N/c1[nH]cnc1C(N)=O [dacarbazine] | – | – | – | – | – | – | – | – | 4.59 | > 10 | > 10 | > 10 | > 10 | > 20 | > 20 | > 20 | > 20 | – |
| Cc1nc(Nc2ncc(C(=O)Nc3c(C)cccc3Cl)s2)cc(N2CCN(CCO)CC2)n1 [dasatinib, reference compound] | – | – | – | – | – | – | – | – | – | – | – | – | > 10 | 3.52 | 7.02 | 11.9 | – | IC50 [1, 22]: > 10 µM; EC50 [2, 23]: 0.0067 µM; EC50 ([2]; Mus musculus, C2C12; read-out: Wnt pot. EC50): 0.007 µM; EC50 (INS-1E cells; [24]): > 10 µM; EC50 (NCI-H716 cells; [25]): > 10 µM; IC50 (DLD-1; [26]): 3.5 µM; IC50 (SW480; [27]): 7 µM; IC50 (HCT116; [28]): 11.9 µM; IC50 [3, 29]: > 20 µM |
| Cc1ccc(S(=O)(=O)NC(=O)NN2CC3CCCC3C2)cc1 (stereo not drawn) [gliclazide, reference compound] | – | – | – | – | – | – | – | – | – | – | 1.83 | – | > 10 | – | – | – | – | IC50 ([1]; Homo sapiens, Table 2; primary assay tube area; 20 = no response in concentration-response, 20.1 = inactive in single concentration testing; read-out: Anti-Angio IC50): > 10 µM; EC50 [2, 30]: > 10 µM; EC50 (INS-1E cells; [24]): 1.8 µM; EC50 (NCI-H716 cells; [25]): > 10 µM; G2/M IC50 / EC50 (HeLa cells): 20 (values shown as 20 indicate that the compound was tested in concentration-response and showed no response at the highest concentration tested (e.g. IC50 > 20 μM)); IC50 (DLD-1; [26]): > 20 µM; IC50 (SW480; [27]): > 20 µM; IC50 (HCT116; [28]): > 20 µM; IC50 [3, 29]: > 20 µM |
| O=c1[nH]c(=O)n([C@H]2C[C@H](O)[C@@H](CO)O2)cc1I [idoxuridine] | – | – | – | – | – | – | – | – | 0.681 | > 10 | > 10 | > 10 | > 10 | > 20 | > 20 | > 20 | > 20 | – |
| CC[C@H](C)C(=O)O[C@H]1C[C@@H](C)C=C2C=C[C@H](C)[C@H](CC[C@@H]3C[C@@H](O)CC(=O)O3)[C@H]21 [lovastatin, reference compound] | – | – | – | – | – | – | – | – | – | – | – | – | – | – | – | – | – | IC50 ([1]; Homo sapiens, read-out: Anti-Angiogenesis): 3.27 µM; EC50 ([2]; Mus musculus, C2C12, read-out: Wnt Pathway): > 10 µM; EC50 (INS-1E cells; Rattus norvegicus, INS-1E, read-out: Insulin Secretion): > 10 µM; EC50 (NCI-H716 cells; Homo sapiens, NCI-H716, read-out: GLP 1 Secretion): > 20 µM; EC50 (HeLa cells): > 10 µM; IC50 (DLD-1; DLD-1, read-out: Basal_Viability ATP DLD-1): 19.2 µM; IC50 (SW480; SW480, read-out: Basal_Viability ATP SW480): 4.73 µM; IC50 (HCT116; HCT-116, read-out: Basal_Viability ATP HCT116): 1.75 µM; IC50 [3, 21]: 7.36 µM |
| CC(=O)Oc1ccccc1C(=O)Nc1ncc([N+](=O)[O-])s1 [nitazoxanide] | – | – | – | – | – | – | – | – | 2.06 | > 10 | > 10 | > 10 | > 10 | 3.09 | 3.03 | 2.81 | 2.46 | – |
| CCCCc1ccc2[nH]c(NC(=O)OC)nc2c1 [parbendazole] | – | – | – | – | – | – | – | – | 0.053 | – | > 10 | > 10 | 0.0106 | 0.64 | 1.99 | 0.118 | 0.105 | EC50 [2, 23]: 0.0336 µM |
| Cc1ccc(Nc2nccc(N(C)c3ccc4c(C)n(C)nc4c3)n2)cc1S(N)(=O)=O [pazopanib, reference compound] | – | – | – | – | – | – | – | – | 0.0465 | – | – | – | > 10 | – | 5.68 | – | – | IC50 [1, 22]: 0.047 µM; activity in the Wnt potentiation module (in words) [2]: None of these agents, however, possessed appreciable activity; EC50 [2, 30]: > 10 µM; EC50 (INS-1E cells; [24]): > 10 µM; EC50 (NCI-H716 cells; [25]): > 10 µM; IC50 (DLD-1; [26]): > 20 µM; IC50 (SW480; [27]): 5.7 µM; IC50 (HCT116; [28]): > 20 µM; IC50 ([3]; HCT-116, 72 h, read-out: HCT-116 (GSK3β) viab. IC50): > 20 µM |
| NCCNc1ccc(NCCN)c2c1C(=O)c1ccncc1C2=O [pixantrone] | 0.0465 | > 10 | > 10 | > 10 | 0.0483 | > 20 | > 20 | > 20 | – | – | – | – | – | – | – | – | – | IC50 [3, 11]: 14.6 µM |
